# Experimental data published in article PMC7345279 (Antibiotics, 2020).
# Several values for one entry are separate records, joined by “and”; a condition that tells them apart may be missing. Identical values can stand only once. Like-named read-outs stand apart in the source and are kept apart here.
# Tests used:
# [1] = system: plasma proteins; conditions: cited from earlier work
# [2] = biological target: HSA (Homo sapiens, UniProt P02768); experiment: Binding of FLU to HSA solutions (40 and 25 g/L), alone and with anticancer agents (ultrafiltration, LC-MS/MS); conditions: for % Unb / Total conc / Unb Conc: alone
# HSA, sequence (P02768 25-609): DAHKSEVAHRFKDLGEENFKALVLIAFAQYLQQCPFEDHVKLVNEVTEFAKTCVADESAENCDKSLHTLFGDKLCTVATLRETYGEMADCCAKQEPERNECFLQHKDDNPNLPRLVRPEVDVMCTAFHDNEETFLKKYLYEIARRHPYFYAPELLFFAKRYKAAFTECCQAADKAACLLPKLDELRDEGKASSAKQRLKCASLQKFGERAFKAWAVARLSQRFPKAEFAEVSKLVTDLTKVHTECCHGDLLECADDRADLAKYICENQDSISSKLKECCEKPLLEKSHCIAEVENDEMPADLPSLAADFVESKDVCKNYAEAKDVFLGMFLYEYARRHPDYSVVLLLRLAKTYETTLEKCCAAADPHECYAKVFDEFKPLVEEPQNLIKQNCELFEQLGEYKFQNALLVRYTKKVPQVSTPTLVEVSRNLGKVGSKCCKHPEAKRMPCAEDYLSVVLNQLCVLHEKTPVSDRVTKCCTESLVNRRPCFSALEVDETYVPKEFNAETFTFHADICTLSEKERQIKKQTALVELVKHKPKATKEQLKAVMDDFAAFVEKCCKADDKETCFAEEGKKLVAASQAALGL
# [3] = system: α-1-acid glycoprotein (AGP); experiment: Binding of FLU to AGP solutions (0.9 and […]), alone and with IMA (ultrafiltration, LC-MS/MS); conditions: for % Unb / Total conc / Unb Conc: alone
# [4] = system: human plasma proteins; experiment: Unbound fraction / protein binding of FLU in pooled plasma, alone and with a second drug (ultrafiltration, LC-MS/MS); conditions: for FLU bound %: Pooled Plasma; for %Unbound / Measured Unbound Conc in Plasma / Measured Total Conc in Plasma: pooled plasma, alone, listed as FLU alone
# [5] = as above; conditions: human, plasma
compound,measurement,setting,value
"Cc1ccc(NC(=O)c2ccc(CN3CCN(C)CC3)cc2)cc1Nc1nccc(-c2cccnc2)n1 [IMA, imatinib]",bound to human plasma proteins,[1]; ref 54,95%
"O=c1[nH]cc(F)c(=O)[nH]1 [5-FU, 5-fluorouracil]",protein binding,[1]; ref 63,8–12%
"Cc1onc(-c2c(F)cccc2Cl)c1C(=O)N[C@@H]1C(=O)N2[C@@H]1SC(C)(C)[C@@H]2C(=O)O [FLU, Flucloxacillin]",FLU bound %,"[2]; Albumin (25 g/l), FLU 0.2 µg/mL",94.91%
same,FLU bound %,"[2]; Albumin (25 g/l), FLU 20 µg/mL",93.49%
same,FLU bound %,"[2]; Albumin (40 g/l), FLU 0.2 µg/mL",94.39%
same,FLU bound %,"[2]; Albumin (40 g/l), FLU 20 µg/mL",93.98%
same,% Unb,"[2]; HSA 25 g/L, FLU 0.2 µg/mL",5.09%
same,Total conc,"[2]; HSA 25 g/L, FLU 0.2 µg/mL",0.232 µg/mL
same,Unb Conc,"[2]; HSA 25 g/L, FLU 0.2 µg/mL",0.012 µg/mL
same,% Unb,"[2]; HSA 25 g/L, FLU 20 µg/mL",6.51%
same,Total conc,"[2]; HSA 25 g/L, FLU 20 µg/mL",18.214 µg/mL
same,Unb Conc,"[2]; HSA 25 g/L, FLU 20 µg/mL",1.182 µg/mL
same,% Unb,"[2]; HSA 40 g/L, FLU 0.2 µg/mL",5.61%
same,Total conc,"[2]; HSA 40 g/L, FLU 0.2 µg/mL",0.197 µg/mL
same,Unb Conc,"[2]; HSA 40 g/L, FLU 0.2 µg/mL",0.011 µg/mL
same,% Unb,"[2]; HSA 40 g/L, FLU 20 µg/mL",6.02%
same,Total conc,"[2]; HSA 40 g/L, FLU 20 µg/mL",16.04 µg/mL
same,Unb Conc,"[2]; HSA 40 g/L, FLU 20 µg/mL",0.966 µg/mL
same,fraction unbound at 30 min,[2]; human,0.0561 to 0.0602
same,% Unb,"[3]; AGP 0.9 g/L, FLU 0.2 µg/mL",39.08%
same,Total conc,"[3]; AGP 0.9 g/L, FLU 0.2 µg/mL",0.261 µg/mL
same,Unb Conc,"[3]; AGP 0.9 g/L, FLU 0.2 µg/mL",0.1019 µg/mL
same,% Unb,"[3]; AGP 0.9 g/L, FLU 20 µg/mL",22.11%
same,Total conc,"[3]; AGP 0.9 g/L, FLU 20 µg/mL",21.060 µg/mL
same,Unb Conc,"[3]; AGP 0.9 g/L, FLU 20 µg/mL",4.6563 µg/mL
same,% Unb,"[3]; AGP […], FLU 0.2 µg/mL",32.04%
same,Total conc,"[3]; AGP […], FLU 0.2 µg/mL",0.266 µg/mL
same,Unb Conc,"[3]; AGP […], FLU 0.2 µg/mL",0.0852 µg/mL
same,% Unb,"[3]; AGP […], FLU 20 µg/mL",20.62%
same,Total conc,"[3]; AGP […], FLU 20 µg/mL",20.745 µg/mL
same,Unb Conc,"[3]; AGP […], FLU 20 µg/mL",4.2773 µg/mL
same,FLU bound %,"[3]; AGPs (0.9 g/l), FLU 0.2 µg/mL",60.92%
same,FLU bound %,"[3]; AGPs ([…]), FLU 0.2 µg/mL",67.96%
same,FLU bound %,"[3]; AGPs ([…]), FLU 20 µg/mL",79.38%
same,binding to plasma proteins,[1]; healthy patients,95–97%
same,typical unbound fraction,[1]; patients with normal HSA (>42 g/L),3–5%
same,bound to plasma proteins,"[1]; ref 13, 17, 38",more than 95%
same,protein binding of FLU in other studies,[1]; ref 36,95%
same,protein binding of FLU in other studies,[1]; ref 38,93%
same,FLU bound %,[4]; FLU 0.2 µg/mL,99.11%
same,FLU bound %,[4]; FLU 20 µg/mL,98.85%
same,%Unbound,[4]; FLU 0.2 µg/mL,0.7% and 0.78%
same,Measured Unbound Conc in Plasma,[4]; FLU 0.2 µg/mL,0.0016 µg/mL and 0.0023 µg/mL
same,%Unbound,[4]; FLU 20 µg/mL,0.98% and 0.76% and 0.73%
same,Measured Unbound Conc in Plasma,[4]; FLU 20 µg/mL,0.1275 µg/mL and 0.21 µg/mL and 0.1766 µg/mL and 0.152 µg/mL
same,Measured Total Conc in Plasma,[4]; FLU spiked 0.2 µg/mL,0.24 µg/mL and 0.23 µg/mL and 0.28 µg/mL
same,Measured Total Conc in Plasma,[4]; FLU spiked 20 µg/mL,21.76 µg/mL and 21.18 µg/mL and 23.09 µg/mL and 20.722 µg/mL
same,"fraction unbound at 30 min, 0.2 µg/mL","[5]; %Unbound, pooled plasma, FLU 0.2 µg/mL, alone",0.0066
same,"fraction unbound at 30 min, 20 µg/mL","[5]; %Unbound, pooled plasma, FLU 20 µg/mL, alone",0.0059
same,fraction unbound at 30 min,"[5]; protein binding of FLU, spiked pooled plasma, 37 °C, 30 min, range over tested FLU concentrations",0.0059 to 0.0098
